Data reported in patent US6903118B1, “Piperazinyl-substituted pyridylalkane, alkene and alkine carboxamides” (Klinge Pharma GmbH, priority 1997, dated 2005).

melting point [°C] | Structure (SMILES)
110 to 114 | O=C(C=Cc1cccnc1)NCCCCN1CCN(C2CCCc3ccccc32)CC1 (stereo not shown) [Substance 87, 3-pyridin-3-yl-N-{4-[4-(1,2,3,4-tetrahydronaphthalin-1-yl)-piperazin-1-yl]-butyl}-acrylamide]
108 to 109 | O=C(C=Cc1cccnc1)NCCCCN1CCN(c2cccc3c2CCCC3)CC1 [Substance 94, 3-pyridin-3-yl-N-[4-(4-{5,6,7,8-tetrahydro-naphthalin-1-yl}-piperazin-1-yl)-butyl]-acrylamide]
183 to 184 | O=C(C=Cc1cccnc1)NCCN1CCN(S(=O)(=O)c2ccc3ccccc3c2)CC1 [Substance 227, N-{2-[4-(naphthalin-2-yl-sulfonyl)-piperazin-1-yl]-ethyl}-3-pyridin-3-yl-acrylamide]
115 to 117 | O=C(C=Cc1cccnc1)NOCCCN1CCN(C(c2ccccc2)c2ccccc2)CC1 [Substance 30, N-[3-(4-diphenylmethylpiperazin-1-yl)-propoxy]-3-pyridin-3-yl-acrylamide]
167 to 168 | O=C(C=Cc1cccnc1)NCCCS(=O)(=O)N1CCN(C(c2ccccc2)c2ccccc2)CC1 [Substance 32, N-[3-(4-diphenylmethyl-piperazin-1-yl-sulfonyl)-propyl]-3-pyridin-3-yl-acrylamide]
115 | O=C(C=Cc1cccnc1)NCCCCN1CCN(c2ccccc2-c2ccccc2)CC1 [Substance 68, N-[4-(4-biphenyl-2-yl-piperazin-1-yl)-butyl)-3-pyridin-3-yl-acrylamide]
168 to 171 | O=C(C=Cc1cccnc1)NCCC(O)CN1CCN(C(c2ccccc2)c2ccccc2)CC1 (stereo not shown) [Substance 29, N-[4-(4-diphenylmethyl-piperazin-1-yl)-3-hydroxy-butyl]-3-pyridin-3-yl-acrylamide]
